# Literature values as cited in publication PMC8480901 (PLoS ONE, 2021).
# Tested on: LPS-induced acute lung injury
# Conditions: pretreated mice vs no-treatment control group; cited from earlier work
smiles,measurement,value
C[C@@H]1C[C@H]2[C@@H]3CCC4=CC(=O)C=C[C@]4(C)[C@@]3(F)[C@@H](O)C[C@]2(C)[C@@]1(O)C(=O)CO [Dexamethasone],"LPS-induced pulmonary edema, accumulation of inflammatory cells in BALF, and increased inflammatory cytokines (eg, TNF-α and IL-6)",significantly attenuated
